Earlier results, collected in patent publication US20210024636A1, “COMPOSITIONS AND METHODS FOR TREATING SEXUAL DYSFUNCTION” (ChemistryRX, priority 2019, published 2021).

What was measured:
[1] = tested on: T-cell adhesion to ICAM-1; settings: human T-cell line, in vitro
[2] = tested on: human peripheral blood mononuclear cells; settings: in vitro

CS(=O)(=O)c1cccc(C[C@H](NC(=O)c2c(Cl)cc3c(c2Cl)CCN(C(=O)c2ccc4ccoc4c2)C3)C(=O)O)c1 [lifitegrast]
inhibition of T-cell adhesion to ICAM-1 [1]: may inhibit T-cell adhesion to ICAM-1
inhibition of secretion of inflammatory cytokines [2]: may inhibit secretion of inflammatory cytokines
